This is an account of results in US20240343699A1, “DERIVATIVES OF SUBSTITUTED MORPHOLINES AND USES THEREOF” (Supernus Pharmaceuticals, Inc., priority 2023, published 2024).

Series [1] in a line: Stability in rat gut microbiota (fecal matter). In kind it is in vitro ADME. The following applies: pH 6 and pH 7.4, 0.5 mM. The procedure:
(§1) Stability in Rat and Human Gut Microbiota. Rat fecal material was obtained and weighed. One capsule of the raw probiotics was crushed and weighed prior to use. The weighed samples were then solubilized in PBS at pH 6.0 and 7.4 to extract microorganisms. The samples were centrifuged at 18,000×g for 10 min to remove particulates and the supernatant was used to evaluate test article stability. An aliquot (50 μL) of the COMPOUND A stock solution was added to the fecal extract (final concentration 0.5 mM) and allowed to incubate at 37° C. Aliquots were collected at 0, 15, 30, 60, and 120 min and analyzed by LC/MS/MS to determine stability of the parent molecule. The collected sample was quenched in acetonitrile/0.1% formic acid mixture.

Series [2] is described as follows: Stability in human gut microbiota (fecal matter). In kind it is in vitro ADME. Conditions: pH 6 and 7.4, all time points. The protocol:
as §1

Series [3] in a line: Stability in fluid matrices SGF, SIF and PBS. Conditions: 37° C. In kind it is physicochemical. The protocol: Simulated Gastric Fluid (SGF) was prepared with 34.2 mM NaCl, 80 μM sodium taurocholate, 20 μM of L-alpha phosphatidylcholine/lecithin, and 0.1 mg/mL of Pepsin. 1 M HCl was added dropwise to adjust the pH to 1.96. Simulated Intestinal Fluid (SIF) was prepared with sodium phosphate monobasic, 105.9 mM NaCl, […] sodium taurocholate, and […] of L-alpha phosphatidylcholine/lecithin. 1 N NaOH was added dropwise to adjust the pH to 5.98. Phosphate buffered saline (PBS) at pH 6.0 was made by titrating PBS at pH 7.4 with 1 M HCl.
Stability of Test Articles at Different pH Values. 10 mM stock solutions of COMPOUND A were prepared in DMSO. From this stock solution, a single concentration in a 10 μL aliquot was added to three fluid matrices: SGF at pH 2.0 (gastric), SIF at pH 6.0 (upper intestine), and PBS at 7.4 (systemic). The final volume was 1 mL (0.1 mM). The preparations were then incubated at 37° C. and samples were collected at 0, 15, 30, 60, and 120 min for analysis of parent material by LC/MS/MS. The collected sample was quenched in acetonitrile/0.1% formic acid mixture. Red Blood Cell (RBC): Human and rat blood were centrifuged to separate out red blood cells at […] for 15 min. The upper plasma level was aspirated with a micropipette and placed in a bleach solution for disposal. The RBC pellet was resuspended in sterile isotonic saline. The pellet was gently resuspended by rocking the tube. The sample was then centrifuged again to collect the RBC pellet and then resuspended and washed one more time following the same procedure. A total of three was done. Following the last wash and centrifugation, the RBCs were resuspended with PBS; and mixed by inversion. Aliquots of the resuspended and washed RBCs were then placed into 4 reaction tubes. These tubes were centrifuged to collect the RBCs. The fluid level was marked on each tube, then the supernatant was aspirated off and the cells resuspended with room temperature PBS pH 7.4 to the original mark. An aliquot of the RBC suspension was added to four sterile tubes containing PBS pH 7.4 at room temperature.

The test system of a further series is anxiety-like behavior. The series can be described thus: Elevated plus maze (EPM). In kind it is in vivo, male Wistar rats. Conditions: for Closed arm entries / Closed arm returns / Head dips in open arms / Stretch-attend postures / Time in closed arms / Time in open arms / Total arm entries: mean; for % Time in open arms / Open Arm Entries / Total distance travelled: mean ± S.E.M.

In another series the test system is amidase. The series can be described thus: Stability in the presence of amidase and amidase inhibitors in PBS. Conditions: amidase 50 units in PBS. In kind it is biochemical. The procedure:
Stability of COMPOUND A in the Presence of Amidase in Pure System. […] Test article (COMPOUND A) stock solution was prepared in 100% DMSO at a concentration of 10 mM. An aliquot (50 μL) of test article stock solution was added to 950 μL of PBS with and without amidase (50 units) in 1.5 mL tubes, and the mixture was vortexed and incubated at 37° C. with 5% CO2 for 120 min. Samples (50 μL) were taken at 0, 15, 30, 60, and 120 min after being vortexed. Samples were quenched in 150 μL acetonitrile/0.1% formic acid solution and briefly vortexed then immediately frozen at −80° C. Stability was determined by measuring loss of parent compound using LC/MS/MS methods. Each exposure condition and time point were done in triplicate.
Stability of COMPOUND A in the Presence of Amidase and Amidase Inhibitors in a Phosphate-buffered Saline (PBS). To confirm inhibition of the amidase, individual inhibitors were added to PBS with amidase (50 units). A solution without amidase and without inhibitors was also tested as a control. The individual inhibitors tested were Chloroacetone at 200 μM and MAFP at 40 nM. Amidase solution was prepared as described above and inhibitors were added to the solutions to the intended concentrations. […] Stability was determined by measuring loss of parent compound using LC/MS/MS methods. […]

A further series deals with prepulse inhibition. Put plainly: Prepulse inhibition (PPI) of the auditory startle response, apomorphine-impairment model.
[4] abbreviates: 30 mg/kg PO 20 min prior to EPM.
[5] abbreviates: 60 mg/kg PO 20 min prior to EPM.
Setting [6] is: 120 mg/kg PO 40 min prior to EPM.
The mark [7] stands for this setting: COMPOUND C 60 mg/kg PO + apomorphine.
[8] abbreviates: COMPOUND C 90 mg/kg PO + apomorphine.
Where [9] appears, read: COMPOUND C 120 mg/kg PO + apomorphine.

Procedure for prepulse inhibition: Four standard startle chambers (San Diego Instruments, San Diego, CA) were used. […] The tube is mounted on a plastic frame, under which a piezoelectric accelerometer is mounted, which records and transduces the motion of the tube. Three days before drug testing the experimental subjects were each placed in one of the startle test chambers for a period of 10 minutes (without any startle stimuli) as an initial period of acclimation to the apparatus. Two days before drug testing the animals were again placed in the test chamber and then exposed to 12 startle stimuli and to each prepulse level 3 times (see below). This procedure was done to reduce the highly variable responses to the initial exposures to the startle stimuli as well as to ensure that the prepulse stimuli (alone) had no significant effect on the startle response. One day before drug testing, a full 60 trial PPI test session (as subsequently described for the drug testing experiments, see below) was conducted for all experimental subjects.
On the day of drug testing the rats were transported to the startle chamber room and left undisturbed for at least 30 min. […] After this period, the rats received 12 startle trials, 12 no-stimulus trials, and 12 trials of each of the prepulse/startle trials (see below) for a total of 60 trials. The intertrial interval ranged from 10 to 30 s, and the total session lasted about 25-30 min. The startle trials consisted of single 120 dB white noise bursts lasting 20 ms.
The prepulse inhibition trials consisted of a prepulse (20 ms burst of white noise with intensities of 75, 80, or 85 dB) followed, 100 ms later, by a startle stimulus (120 dB, 20 ms white noise). During the no-stimulus trial, no startle noise was presented, but the movement of the rat was recorded. This represented a control trial for detecting differences in overall activity. The 60 different trials were presented pseudo-randomly, ensuring that each trial was presented 12 times and that no two consecutive trials were identical. The resulting movement of the rat in the startle chamber was measured during 100 ms after startle stimulus onset (sampling frequency 1 kHz), rectified, amplified, and fed into a computer that determined the maximal response that occurred during the 100-ms period. Basal startle amplitude was determined as the mean amplitude of the 12 startle trials. Prepulse inhibition was calculated according to the formula 100−100%×(PPx/P120), in which PPx is the mean of the 12 prepulse inhibition trials (i.e., for each individual prepulse level), and p120 is the basal startle amplitude. The average level of PPI was also calculated (average of the responses to pp75, pp80, or pp85) and analyzed separately.

For the molecule `CCOc1ccccc1OC[C@@H]1CN(C(=O)OC(C)OC(=O)[C@@H](N)C(C)C)CCO1` (some centres unmarked) [COMPOUND A], in series [1], the “stability in rat fecal matter” value is listed as “time-dependent decrease in the amount of parent compound”. For the same molecule, the “amount of parent compound in human fecal matter” value in series [2] is around 100%. Further, the “stability in PBS (amount of parent compound)” value in series [3] (PBS pH 7.4, 0.1 mM) is on record as “time-dependent decrease in the amount of parent compound”. In addition, the “stability in SGF (LC/MS/MS peak area of parent)” value in series [3] (SGF pH 2.0, 0.1 mM, 0-120 min) was “time-dependent decrease in the LC/MS/MS peak area until 20 min”. Also, the “amount of parent compound in SIF” value in series [3] (SIF pH 6.0, 0.1 mM, all time points) stood at 100%. Also, in the series on anxiety-like behavior (setting [4]), the Closed arm entries is 10.00, the Closed arm returns was determined as 2.00, the “Head dips in open arms” value is 2.25 and the Stretch-attend postures is 18.00. In the series on anxiety-like behavior (setting [4]), the “Time in closed arms” value turned out to be 282.58 s, the “Time in open arms” value came out at 8.74 s, the Total arm entries amounted to 11.00 and the “% Time in open arms” value was 2.91 ± 1.28%. Besides, in the series with anxiety-like behavior (setting [4]), the “Open Arm Entries” value came to 1.00 ± 0.33 and the Total distance travelled came to 1591.15 ± 73.52 cm. In the series on anxiety-like behavior (setting [5]), the Closed arm entries is 7.00, the Closed arm returns came out at 2.13, the “Head dips in open arms” value is on record as 3.63 and the Stretch-attend postures came out at 18.63. For the same molecule, in the series on anxiety-like behavior (setting [5]), the “Time in closed arms” value was determined as 281.10 s, the “Time in open arms” value came out at 7.25 s, the Total arm entries stood at 7.63 and the “% Time in open arms” value is reported as 2.42 ± 0.92%. Further, in the series on anxiety-like behavior (setting [5]), the “Open Arm Entries” value is given as 0.63 ± 0.18 and the Total distance travelled is 1318.06 ± 39.58 cm. In the series with anxiety-like behavior (setting [6]), the Closed arm entries is listed as 9.63, the Closed arm returns is 2.00, the “Head dips in open arms” value is 2.25 and the Stretch-attend postures came to 20.38. In addition, in the series with anxiety-like behavior (setting [6]), the “Time in closed arms” value came to 283.06 s, the “Time in open arms” value was determined as 0.85 s, the Total arm entries amounted to 9.88 and the “% Time in open arms” value was determined as 0.28 ± 0.19%. Also, in the series with anxiety-like behavior (setting [6]), the “Open Arm Entries” value amounted to 0.25 ± 0.16 and the Total distance travelled is on record as 1476.54 ± 60.73 cm. Besides, the “total distance traveled vs vehicle” value in the series with anxiety-like behavior (COMPOUND A 60 and 120 mg/kg p.o.) is listed as “travelled a significantly shorter distance”. Besides, in the series with amidase, the “role of amidase in degradation” value is “amidase activity played an important role”.
In the case of `CCOc1ccccc1OC[C@@H]1CN(C(=O)OC(OC(=O)[C@H](N)C(C)C)C(C)C)CCO1` (some centres unmarked) [COMPOUND C], the “% PPI (mean ± SEM)” value in the series on prepulse inhibition (setting [7]) is on record as 43.6 ± 5.0%; with prepulse inhibition (setting [8]), 37.2 ± 5.6%; in the series with prepulse inhibition (setting [9]), 43.7 ± 3.7%. For the same molecule, the results for the “Acoustic Startle (AU) (mean ± SEM)” value in the series on prepulse inhibition (setting [7]), with prepulse inhibition (setting [8]) and in the series with prepulse inhibition (setting [9]) were 1719.1 ± 211.2 AU, 1579.9 ± 171.1 AU and 1856.8 ± 245.8 AU, respectively. Besides, the “attenuation of the effects of apomorphine on PPI” value in the series on prepulse inhibition (COMPOUND C 60, 90, 120 mg/kg PO) is “None of the doses of COMPOUND C were associated with a statistically significant attenuation”.
